Results reported in patent publication US9714238B2, “Therapeutic agents for ocular hypertension” (Allergan, Inc., priority 2010, dated 2017).

Key:
EP2 [1] = target: T1, EP2 (Homo sapiens, UniProt P43116); test: EP2 cAMP functional assay; format: cell-based; conditions: unit inferred
Procedure: (§1) Data from running binding and activity studies on the compounds of the invention were carried out as described in the U.S. Pat. No. 7,427,685, the contents of which are incorporated herein by reference.

EP2 [2] = target: T1, EP2; test: EP2 binding; conditions: unit inferred
Procedure: as §1

EP4 [3] = target: T2, EP4 (Homo sapiens, UniProt P35408); test: EP4 binding; conditions: unit inferred
Procedure: as §1

EP4 [4] = target: T2, EP4; test: EP4 flipr functional assay; format: cell-based; conditions: unit inferred
Procedure: as §1

hEP3A = target: T3, hEP3A (Homo sapiens, UniProt P43115); test: Other receptors functional activity, hEP3A; format: cell-based
T3 sequence (P43115 1-390): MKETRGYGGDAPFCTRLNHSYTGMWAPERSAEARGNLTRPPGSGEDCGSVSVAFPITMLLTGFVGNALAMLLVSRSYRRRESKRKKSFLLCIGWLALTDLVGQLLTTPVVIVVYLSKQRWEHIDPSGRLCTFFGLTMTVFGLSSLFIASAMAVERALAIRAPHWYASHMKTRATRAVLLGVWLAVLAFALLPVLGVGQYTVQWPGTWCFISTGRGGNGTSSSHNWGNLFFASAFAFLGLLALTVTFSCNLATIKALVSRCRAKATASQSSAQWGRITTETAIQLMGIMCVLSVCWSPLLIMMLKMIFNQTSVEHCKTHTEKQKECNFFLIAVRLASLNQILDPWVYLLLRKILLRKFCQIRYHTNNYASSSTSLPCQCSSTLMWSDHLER
Procedure: as §1

hTP = target: T4, hTP (Homo sapiens, UniProt P21731); test: Other receptors functional activity, hTP; format: cell-based
T4 sequence (P21731 1-343): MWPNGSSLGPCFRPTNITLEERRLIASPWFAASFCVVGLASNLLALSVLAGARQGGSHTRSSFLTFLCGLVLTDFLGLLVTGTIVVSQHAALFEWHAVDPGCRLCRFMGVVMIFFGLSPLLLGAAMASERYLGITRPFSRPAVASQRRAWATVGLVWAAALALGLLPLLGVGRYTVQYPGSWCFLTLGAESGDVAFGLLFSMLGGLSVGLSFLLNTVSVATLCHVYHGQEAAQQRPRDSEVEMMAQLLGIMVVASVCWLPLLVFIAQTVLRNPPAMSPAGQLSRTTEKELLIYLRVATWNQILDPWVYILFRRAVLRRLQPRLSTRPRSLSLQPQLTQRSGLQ
Procedure: as §1

EP4 [5] = target: T2, EP4; test: EP4 cAMP functional assay; format: cell-based; conditions: unit inferred
Procedure: as §1

normotensive dogs = test: Intraocular pressure and ocular surface hyperemia in normotensive dogs; format: in vivo, dog
Procedure: Isopropyl 2-(3-(6-hexyl-1-naphthamido)phenoxy)acetate was tested in normotensive dogs at 0.05%, dosing once daily for 5 days. The maximum intraocular pressure (IOP) decrease from baseline was 4.7 mmHg (28%) at 30 h; the maximum ocular surface hyperemia (OSH) score was 1.0 at 26 h. This compound was also tested in laser-induced hypertensive monkeys, using one single day dose. At 0.05%, the maximum IOP decrease from baseline was 17.1 mmHg (48%) at 24 h.
Isopropyl 2-(3-(6-(1-hydroxyhexyl)-1-naphthamido)phenoxy)acetate was tested in normotensive dogs at two concentrations, dosing once daily for 5 days. At 0.005%, the maximum intraocular pressure (IOP) decrease from baseline was 4.1 mmHg (22%) at 4 h; the maximum ocular surface hyperemia (OSH) score was 1.6 at 2 h. At 0.01%, the maximum intraocular pressure (IOP) decrease from baseline was 4.4 mmHg (26%) at 4 h; the maximum ocular surface hyperemia (OSH) score was 1.5 at 50 h. This compound was also tested in laser-induced hypertensive monkeys at two concentrations, using one single day dose. At 0.005%, the maximum IOP decrease from baseline was 8.1 mmHg (30%) at 24 h. At 0.01%, the maximum IOP decrease from baseline was 15.4 mmHg (42%) at 24 h.
Isopropyl 2-(3-(6-butyl-1-naphthamido)phenoxy)acetate was tested in normotensive dogs at 0.01%, dosing once daily for 4 days. The maximum intraocular pressure (IOP) decrease from baseline was 5.1 mmHg (26%) at 78 h; the maximum ocular surface hyperemia (OSH) score was 0.9 at 4 h. This compound was also tested in laser-induced hypertensive monkeys, using one single day dose. At 0.01%, the maximum IOP decrease from baseline was 14.1 mmHg (38%) at 24 h.
Isopropyl 2-(3-(3-hexylquinoline-8-carboxamido)phenoxy)acetate was tested in normotensive dogs at 0.01%, dosing once daily for 5 days. The maximum intraocular pressure (IOP) decrease from baseline was 2.8 mmHg (14%) at 100 h; the maximum ocular surface hyperemia (OSH) score was 0.8 at 28 h. This compound was also tested in laser-induced hypertensive monkeys, using one single day dose. At 0.01%, the maximum IOP decrease from baseline was 8.8 mmHg (19%) at 6 h.

T1 sequence (P43116 whole entry): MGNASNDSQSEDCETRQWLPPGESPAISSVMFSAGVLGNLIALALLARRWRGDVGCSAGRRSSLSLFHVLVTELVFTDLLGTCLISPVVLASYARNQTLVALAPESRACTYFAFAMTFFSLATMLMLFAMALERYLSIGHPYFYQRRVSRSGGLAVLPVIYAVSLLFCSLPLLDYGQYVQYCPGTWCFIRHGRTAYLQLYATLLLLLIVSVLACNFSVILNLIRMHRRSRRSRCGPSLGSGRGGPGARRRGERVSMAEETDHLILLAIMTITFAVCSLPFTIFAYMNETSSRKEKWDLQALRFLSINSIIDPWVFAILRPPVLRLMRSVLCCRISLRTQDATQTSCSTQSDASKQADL
T2 sequence (P35408 whole entry): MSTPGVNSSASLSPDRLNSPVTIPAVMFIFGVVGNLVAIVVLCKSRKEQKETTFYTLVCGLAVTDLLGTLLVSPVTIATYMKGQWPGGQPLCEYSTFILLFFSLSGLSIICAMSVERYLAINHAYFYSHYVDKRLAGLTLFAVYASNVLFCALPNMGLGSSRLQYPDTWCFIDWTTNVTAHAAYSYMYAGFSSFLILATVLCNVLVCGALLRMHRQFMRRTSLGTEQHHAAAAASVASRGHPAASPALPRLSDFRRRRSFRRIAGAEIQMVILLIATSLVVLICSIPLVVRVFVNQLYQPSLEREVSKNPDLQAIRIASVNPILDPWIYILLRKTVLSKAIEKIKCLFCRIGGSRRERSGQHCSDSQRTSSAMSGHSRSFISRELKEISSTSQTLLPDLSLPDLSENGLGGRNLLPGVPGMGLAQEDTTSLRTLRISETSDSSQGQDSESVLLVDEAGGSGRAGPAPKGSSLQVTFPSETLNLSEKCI

SMILES | EC50 (EP2 [1]) | Ki (EP2 [2]) | Ki (EP4 [3]) | also measured
Cc1ccc2c(C(=O)Nc3cccc(OCC(=O)O)c3)cccc2c1 [Example 7, 2-(3-(6-Methyl-1-naphthamido)phenoxy)acetic acid] | 65 nM | 1190 nM | > 10000 nM | 
O=C(O)COc1cccc(NC(=O)c2cccc3ccccc23)c1 [Example 8, 2-(3-(1-Naphthamido)phenoxy)acetic acid] | 83 nM | 4600 nM | > 10000 nM | 
CCCCCCc1ccc2c(C(=O)NCCc3ccc(C(=O)O)s3)cccc2c1 [Example 9, 5-(2-(6-Hexyl-1-naphthamido)ethyl)thiophene-2-carboxylic acid] | 25 nM | 3210 nM | 2450 nM | EC50 (EP4 [4]): 9400 nM
CCCC(O)c1ccc2c(C(=O)Nc3cccc(OCC(=O)O)c3)cccc2c1 (centres unmarked) [Example 11, 2-(3-(6-(1-Hydroxybutyl)-1-naphthamido)phenoxy)acetic acid] | 0.7 nM | 63 nM | 5310 nM | 
CCCCCCc1cnc2c(C(=O)Nc3cccc(OCC(=O)O)c3)cccc2c1 [Example 12, 2-(3-(3-Hexylquinoline-8-carboxamido)phenoxy)acetic acid] | 0.8 nM | 25 nM | 2150 nM | EC50 (EP4 [4]): 4680 nM; EC50 (hEP3A): 13300 nM; EC50 (hTP): 6560 nM
CCCCc1cnc2c(C(=O)Nc3cccc(OCC(=O)O)c3)cccc2c1 [Example 13, 2-(3-(3-Butylquinoline-8-carboxamido)phenoxy)acetic acid] | 2 nM | 27 nM | 2060 nM | EC50 (EP4 [5]): > 10000 nM
CCCCc1cnc2c(C(=O)NCCc3ccc(C(=O)O)s3)cccc2c1 [Example 14, 5-(2-(3-Butylquinoline-8-carboxamido)ethyl)thiophene-2-carboxylic acid] | 12 nM | 350 nM | 2030 nM | EC50 (EP4 [5]): > 10000 nM
CCCCCCc1cnc2c(C(=O)Nc3cccc(OCC(=O)OC(C)C)c3)cccc2c1 [Isopropyl 2-(3-(3-hexylquinoline-8-carboxamido)phenoxy)acetate] |  |  |  | maximum ocular surface hyperemia (OSH) score (normotensive dogs; 0.01%, once daily for 5 days, at 28 h): 0.8
CCCCCC(O)c1ccc2c(C(=O)Nc3cccc(OCC(=O)OC(C)C)c3)cccc2c1 (centres unmarked) [Isopropyl 2-(3-(6-(1-hydroxyhexyl)-1-naphthamido)phenoxy)acetate] |  |  |  | maximum ocular surface hyperemia (OSH) score (normotensive dogs; 0.005%, once daily for 5 days, at 2 h): 1.6; maximum ocular surface hyperemia (OSH) score (normotensive dogs; 0.01%, once daily for 5 days, at 50 h): 1.5
CCCCc1ccc2c(C(=O)Nc3cccc(OCC(=O)OC(C)C)c3)cccc2c1 [Isopropyl 2-(3-(6-butyl-1-naphthamido)phenoxy)acetate] |  |  |  | maximum ocular surface hyperemia (OSH) score (normotensive dogs; 0.01%, once daily for 4 days, at 4 h): 0.9
CCCCCCc1ccc2c(C(=O)Nc3cccc(OCC(=O)OC(C)C)c3)cccc2c1 [Isopropyl 2-(3-(6-hexyl-1-naphthamido)phenoxy)acetate] |  |  |  | maximum ocular surface hyperemia (OSH) score (normotensive dogs; 0.05%, once daily for 5 days, at 26 h): 1.0

More lines, main results first:

EC50 (EP2 [1]) | Ki (EP2 [2]) | Ki (EP4 [3]) | SMILES | also measured
2 nM | 99 nM | > 10000 nM | CCCCCCc1ccc2c(C(=O)Nc3cccc(OCC(=O)O)c3)cccc2c1 [Example 1, 2-(3-(6-Hexyl-1-naphthamido)phenoxy)acetic acid] | 
2 nM | 383 nM | > 10000 nM | CCCCCc1ccc2c(C(=O)Nc3cccc(OCC(=O)O)c3)cccc2c1 [Example 2, 2-(3-(6-Pentyl-1-naphthamido)phenoxy)acetic acid] | 
1 nM | 51 nM | > 10000 nM | CCCCc1ccc2c(C(=O)Nc3cccc(OCC(=O)O)c3)cccc2c1 [Example 3, 2-(3-(6-Butyl-1-naphthamido)phenoxy)acetic acid] | 
15 nM | 1200 nM | 7680 nM | CCCCCCCc1ccc2c(C(=O)Nc3cccc(OCC(=O)O)c3)cccc2c1 [Example 4, 2-(3-(6-Heptyl-1-naphthamido)phenoxy)acetic acid] | EC50 (EP4 [4]): > 10000 nM
5 nM | 30 nM | 6920 nM | CCCc1ccc2c(C(=O)Nc3cccc(OCC(=O)O)c3)cccc2c1 [Example 5, 2-(3-(6-Propyl-1-naphthamido)phenoxy)acetic acid] | EC50 (EP4 [4]): 7130 nM
5 nM | 112 nM | > 10000 nM | CCc1ccc2c(C(=O)Nc3cccc(OCC(=O)O)c3)cccc2c1 [Example 6, 2-(3-(6-Ethyl-1-naphthamido)phenoxy)acetic acid] | 
0.2 nM | 37 nM | > 10000 nM | CCCCCC(O)c1ccc2c(C(=O)Nc3cccc(OCC(=O)O)c3)cccc2c1 (centres unmarked) [Example 10, 2-(3-(6-(1-hydroxyhexyl)-1-naphthamido)phenoxy)acetic acid] | 
25 nM | 201 nM | 8480 nM | CCCCCOc1ccc2c(C(=O)Nc3cccc(OCC(=O)O)c3)cccc2c1 [Example 15, 2-(3-(6-(Pentyloxy)-1-naphthamido)phenoxy)acetic acid] | EC50 (EP4 [5]): > 10000 nM
